This passage reports IC50 and viability results from ChEMBL document CHEMBL5257024, “Synthesis of α,β-Unsaturated Carbonyl-Based Compounds, Oxime and Oxime Ether Analogs as Potential Anticancer Agents for Overcoming Cancer Multidrug Resistance by Modulation of Efflux Pumps in Tumor Cells” (J Med Chem, 2016).

The subject of one data set is PANC-1. As to the kind of experiment: cells. The settings on record: Homo sapiens, PANC-1, 48 h.
For the next data set, the system named is MCF7. Nature of the data set: Antiproliferative activity against human MCF7 cells assessed as inhibition of cell growth incubated for 48 hrs by propidium iodide staining based fluorometer assay. The settings on record: MCF7, 48 h. It is filed as functional.
The test system of the next data set is MIA PaCa-2. Nature of the data set: Antiproliferative activity against human MIA PaCa-2 cells assessed as inhibition of cell growth incubated for 48 hrs by propidium iodide staining based fluorometer assay. It is filed as functional. The settings on record: MIA PaCa-2, 48 h.
Another data set relates to NCI-H460. Nature of the data set: cells. The settings on record: Homo sapiens, NCI-H460, 48 h.
The subject of a further data set is PC-3. As to the kind of experiment: cells. The settings on record: Homo sapiens, PC-3, 48 h.
The next data set relates to HT-29. As to the kind of experiment: cells. The settings on record: Homo sapiens, HT-29, 48 h.
The nature of data set [1]: Cytotoxicity against human MCF-10A cells assessed as cell viability incubated for 96 hrs by MTT assay. The class given is toxicity, cell-based. More on the design: concentration or dose not given beside the values. The settings on record: read-out: Activity. For orientation: Tetrazolium dyes change colour on reduction, which living cells bring about.
The subject of a further data set is A549. As to the kind of experiment: Antiproliferative activity against human A549 cells assessed as inhibition of cell growth incubated for 48 hrs by propidium iodide staining based fluorometer assay. The class given is functional. The settings on record: A549, 48 h.

Description for HT-29: Antiproliferative activity against human HT-29 cells assessed as inhibition of cell growth incubated for 48 hrs by propidium iodide staining based fluorometer assay
Description for NCI-H460: Antiproliferative activity against human NCI-H460 cells assessed as inhibition of cell growth incubated for 48 hrs by propidium iodide staining based fluorometer assay
Description for PANC-1: Antiproliferative activity against human PANC-1 cells assessed as inhibition of cell growth incubated for 48 hrs by propidium iodide staining based fluorometer assay
Description for PC-3: Antiproliferative activity against human PC-3 cells assessed as inhibition of cell growth incubated for 48 hrs by propidium iodide staining based fluorometer assay

On to `COc1cccc(/C=C2\CCc3ccccc3C2=O)c1Cl`, for which the IC50 with PANC-1 amounted to 27.5 µM; with MCF7, 26.7 µM; in the data set with MIA PaCa-2, 27.9 µM; in the data set with NCI-H460, 25.1 µM; with PC-3, 28.5 µM; in the data set with HT-29, 28.2 µM. In addition, the concentration for half-maximal inhibition (IC50) in the data set with A549 amounted to 25.1 µM. In addition, the viability at 96 h in data set [1] was determined as 92%.
Regarding `CCN(CC)CCO/N=C1\C(=C\c2cc(OC)c(OC)c(OC)c2Br)CCc2c(OC)ccc(OC)c21`, the IC50 in the data set on PANC-1 came to 2.7 µM; with MCF7, 2.2 µM; in the data set with MIA PaCa-2 it was 2.1 µM; in the data set with NCI-H460 it was 2.9 µM; in the data set on PC-3, 2.2 µM; with HT-29, 2.9 µM. The IC50 in the data set on A549 was 2.1 µM. Further, the viability at 96 h in data set [1] was determined as 95%.
In the case of `COc1cc(/C=C2\CCc3ccccc3C2=O)c(Br)c(OC)c1OC`, the IC50 is 21.3 µM in the data set with PANC-1; 20.4 µM with MCF7; 23.7 µM with MIA PaCa-2; 22.2 µM with NCI-H460; 22 µM in the data set on PC-3; 21.2 µM in the data set on HT-29. Besides, in the data set on A549, the IC50 is 22.6 µM. In addition, the viability at 96 h in data set [1] was found to be 94%.
`CCN(CC)CCO/N=C1\C(=C\c2cc(OC)c(OC)c(OC)c2Br)CCc2ccc([N+](=O)[O-])cc21`: the IC50 in the data set with PANC-1 stood at 4.2 µM; in the data set on MCF7 it was 4.9 µM; in the data set on MIA PaCa-2, 4 µM; with NCI-H460, 4.6 µM; in the data set with PC-3, 4.4 µM; in the data set on HT-29 it was 4.5 µM. For the same compound, the IC50 with A549 turned out to be 4.3 µM. In addition, the viability at 96 h in data set [1] stood at 97%.
`COc1ccc(/C=C2\CCc3ccc(F)cc3C2=O)c(Cl)c1OC`: the IC50 is 9.8 µM in the data set on PANC-1; 9.8 µM with MCF7; 9.6 µM with MIA PaCa-2; 10.6 µM with NCI-H460; 9.3 µM with PC-3; 9.4 µM with HT-29. For the same compound, in the data set with A549, the IC50 turned out to be 10.9 µM. The viability at 96 h in data set [1] worked out at 95%.
Turning to `COc1cccc(/C=C2\CCc3ccc([N+](=O)[O-])cc3C2=O)c1Cl`, the IC50 stood at 3.5 µM with PANC-1; 3.3 µM in the data set with MCF7; 3.4 µM with MIA PaCa-2; 3.1 µM in the data set with NCI-H460; 3.1 µM with PC-3; 3.5 µM in the data set on HT-29. In addition, the IC50 in the data set with A549 turned out to be 3.6 µM. Moreover, the viability at 96 h in data set [1] came to 95%.
As to `COc1cccc(/C=C2\CCc3c(OC)ccc(OC)c3C2=O)c1Cl`, the IC50 in the data set with PANC-1 was determined as 7.4 µM; in the data set with MCF7, 7.2 µM; in the data set with MIA PaCa-2, 6.7 µM; in the data set with NCI-H460 it was 7.9 µM; with PC-3, 7.2 µM; in the data set with HT-29, 7.1 µM. For the same compound, the IC50 with A549 came to 8.8 µM. Moreover, the viability at 96 h in data set [1] was found to be 98%.
As to `COc1ccc(/C=C2\CC(C)c3ccccc3C2=O)c(Cl)c1OC` (stereo not given), the IC50 was 7.5 µM with PANC-1; 7.2 µM in the data set on MCF7; 7.2 µM in the data set on MIA PaCa-2; 7.9 µM in the data set on NCI-H460; 7.3 µM in the data set with PC-3; 7.2 µM in the data set with HT-29. Moreover, the IC50 in the data set on A549 came to 7.7 µM. The viability at 96 h in data set [1] worked out at 99%.
With `COc1ccc(/C=C2\CC(C(C)C)C/C(=C\c3ccc(OC)c(OC)c3Cl)C2=O)c(Cl)c1OC` (stereo not given), the IC50 is 12.2 µM with PANC-1; 11.9 µM in the data set on MCF7; 11.8 µM with MIA PaCa-2; 15.3 µM with NCI-H460; 12.6 µM in the data set on PC-3; 13.2 µM in the data set on HT-29. For the same compound, the IC50 with A549 is 12.9 µM. For the same compound, the viability at 96 h in data set [1] turned out to be 87%.
In the case of `COc1ccc(OC)c2c1CC/C(=C\c1ccc(OC)c(OC)c1Cl)C2=O`, the IC50 with PANC-1 was determined as 4.3 µM; in the data set on MCF7 it was 4.1 µM; in the data set with MIA PaCa-2 it was 3.9 µM; in the data set on NCI-H460, 3.8 µM; in the data set with PC-3, 4.5 µM; in the data set on HT-29 it was 4 µM. For the same compound, in the data set on A549, the IC50 was found to be 4.3 µM. The viability at 96 h in data set [1] is 90%.

As a reminder, the IC50 is the concentration at which inhibition is half-maximal.
